{
  "source": "ChEMBL document CHEMBL5705884",
  "about": "“Breaching the DNA damage checkpoint via PF-00477736, a novel small-molecule inhibitor of checkpoint kinase 1” (Mol Cancer Ther, 2008)",
  "key": {"[1]": {"system": "COLO 205", "experiment": "Potentiation factor, ratio of IC50 for human COLO 205 cells to IC50 for human COLO 205 cells in presence of SN-38", "assay_type": "functional"}, "[2]": {"system": "HeLa", "experiment": "Inhibition of camptothecin induced DNA damage in human HeLa cells assessed as increase in mitotic index by measuring histone H3 phosphorylation at S10 residue at 0.001 to 1 uM measured after 16 hrs presence of nocodazole by dot blot assay", "assay_type": "functional, cell-based"}, "[3]": {"system": "COLO 205", "experiment": "Antitumor activity against human COLO 205 cells xenografted in athymic nude mouse model assessed as tumor growth delay by measuring test to control tumor ratio at 4 mg/kg, ip administered twice daily in presence of gemcitabine (Gemcitabine alone= 8%)", "assay_type": "functional"}, "[4]": {"system": "K562", "experiment": "Potentiation factor, ratio of IC50 for human K562 cells to IC50 for human K562 cells in presence of doxorubicin", "assay_type": "functional"}, "[5]": {"system": "COLO 205", "experiment": "In vivo inhibition of Chk1 in athymic nude mouse xenografted with gemcitabine treated human COLO 205 cells assessed as increase in histone H3 phosphorylation level at Ser10 residues at 7.5 to 15 mg/kg by immunohistochemical analysis", "assay_type": "functional, organism-based", "settings": "dose 7.5-15 mg/kg"}, "[6]": {"molecular_target": "Tyrosine-protein kinase Yes (Homo sapiens, UniProt P07947)", "sequence (P07947 whole entry)": "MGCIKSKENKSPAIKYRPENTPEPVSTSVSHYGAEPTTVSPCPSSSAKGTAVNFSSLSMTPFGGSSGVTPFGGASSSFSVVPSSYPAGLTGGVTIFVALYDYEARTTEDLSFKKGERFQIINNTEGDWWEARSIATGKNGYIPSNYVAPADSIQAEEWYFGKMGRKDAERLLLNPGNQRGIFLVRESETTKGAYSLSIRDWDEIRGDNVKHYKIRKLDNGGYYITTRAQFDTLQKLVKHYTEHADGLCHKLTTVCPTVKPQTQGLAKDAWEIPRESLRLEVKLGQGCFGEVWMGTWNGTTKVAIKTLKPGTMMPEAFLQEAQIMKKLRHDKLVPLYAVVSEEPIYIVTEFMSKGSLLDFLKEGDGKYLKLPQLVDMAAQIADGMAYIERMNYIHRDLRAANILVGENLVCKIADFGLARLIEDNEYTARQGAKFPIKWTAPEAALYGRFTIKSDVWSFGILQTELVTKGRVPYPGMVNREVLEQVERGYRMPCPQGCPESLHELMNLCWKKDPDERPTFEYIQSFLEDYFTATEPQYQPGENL", "experiment": "Inhibition of Yes (unknown origin)"}, "[7]": {"system": "COLO 205", "experiment": "Antitumor activity against human COLO 205 cells xenografted in athymic nude mouse model assessed as potentiated tumor growth inhibition at 30 mg/kg, ip administered once daily in presence of gemcitabine relative to control", "assay_type": "functional", "settings": "read-out: TGI"}, "[8]": {"system": "PC-3", "experiment": "Antiproliferative activity against human PC-3 cells deficit of p53 expression assessed as inhibition of cell growth measured after 96 hrs by MTT assay", "assay_type": "functional, cell-based", "settings": "PC-3, 96 h"}, "[9]": {"system": "COLO 205", "experiment": "Antitumor activity against human COLO 205 cells xenografted in athymic nude mouse model assessed as gross log cell kill at 4 mg/kg, ip administered twice daily in presence of gemcitabine (Gemcitabine alone = 0.5%)", "assay_type": "functional"}, "[10]": {"system": "COLO 205", "experiment": "Antitumor activity against human COLO 205 cells xenografted in athymic nude mouse model assessed as tumor growth delay by measuring test to control tumor ratio at 15 mg/kg, ip administered once daily in presence of gemcitabine (Gemcitabine alone = 3%)", "assay_type": "functional"}, "[11]": {"system": "COLO 205", "experiment": "Antitumor activity against human COLO 205 cells xenografted in athymic nude mouse model assessed as tumor growth inhibition at 20 mg/kg, ip administered once daily in presence of gemcitabine (Gemcitabine alone= 58%)", "assay_type": "functional", "settings": "read-out: TGI"}, "[12]": {"system": "PC-3", "experiment": "Potentiation factor, ratio of IC50 for human PC-3 cells to IC50 for human PC-3 cells in presence of gemcitabine", "assay_type": "functional"}, "[13]": {"system": "COLO 205", "experiment": "In vivo inhibition of Chk1 in athymic nude mouse xenografted with gemcitabine treated human COLO 205 cells assessed as increase in phospho histone H2AX level at 7.5 to 15 mg/kg by immunohistochemical analysis", "assay_type": "functional, organism-based", "settings": "dose 7.5-15 mg/kg"}, "[14]": {"experiment": "Cmax in nu/nu mouse at 40 mg/kg, ip by LCMS analysis", "assay_type": "ADME, organism-based", "settings": "in vivo"}, "[15]": {"system": "COLO 205", "experiment": "Antitumor activity against human COLO 205 cells xenografted in athymic nude mouse model assessed as potentiated tumor growth inhibition at 20 mg/kg, ip administered once daily in presence of gemcitabine relative to control", "assay_type": "functional", "settings": "read-out: TGI"}, "[16]": {"system": "COLO 205", "experiment": "Potentiation factor, ratio of IC50 for human COLO 205 cells to IC50 for human COLO 205 cells in presence of doxorubicin", "assay_type": "functional"}, "[17]": {"system": "COLO 205", "experiment": "Antitumor activity against human COLO 205 cells xenografted in athymic nude mouse model assessed as potentiated tumor growth inhibition at 40 mg/kg, ip administered twice daily in presence of gemcitabine relative to control", "assay_type": "functional", "settings": "read-out: TGI"}, "[18]": {"experiment": "Cmax in nu/nu mouse at 4 mg/kg, ip by LCMS analysis", "assay_type": "ADME, organism-based", "settings": "in vivo"}, "[19]": {"molecular_target": "T1, Receptor-type tyrosine-protein kinase FLT3 (Homo sapiens, UniProt P36888)", "T1 sequence (P36888 whole entry)": "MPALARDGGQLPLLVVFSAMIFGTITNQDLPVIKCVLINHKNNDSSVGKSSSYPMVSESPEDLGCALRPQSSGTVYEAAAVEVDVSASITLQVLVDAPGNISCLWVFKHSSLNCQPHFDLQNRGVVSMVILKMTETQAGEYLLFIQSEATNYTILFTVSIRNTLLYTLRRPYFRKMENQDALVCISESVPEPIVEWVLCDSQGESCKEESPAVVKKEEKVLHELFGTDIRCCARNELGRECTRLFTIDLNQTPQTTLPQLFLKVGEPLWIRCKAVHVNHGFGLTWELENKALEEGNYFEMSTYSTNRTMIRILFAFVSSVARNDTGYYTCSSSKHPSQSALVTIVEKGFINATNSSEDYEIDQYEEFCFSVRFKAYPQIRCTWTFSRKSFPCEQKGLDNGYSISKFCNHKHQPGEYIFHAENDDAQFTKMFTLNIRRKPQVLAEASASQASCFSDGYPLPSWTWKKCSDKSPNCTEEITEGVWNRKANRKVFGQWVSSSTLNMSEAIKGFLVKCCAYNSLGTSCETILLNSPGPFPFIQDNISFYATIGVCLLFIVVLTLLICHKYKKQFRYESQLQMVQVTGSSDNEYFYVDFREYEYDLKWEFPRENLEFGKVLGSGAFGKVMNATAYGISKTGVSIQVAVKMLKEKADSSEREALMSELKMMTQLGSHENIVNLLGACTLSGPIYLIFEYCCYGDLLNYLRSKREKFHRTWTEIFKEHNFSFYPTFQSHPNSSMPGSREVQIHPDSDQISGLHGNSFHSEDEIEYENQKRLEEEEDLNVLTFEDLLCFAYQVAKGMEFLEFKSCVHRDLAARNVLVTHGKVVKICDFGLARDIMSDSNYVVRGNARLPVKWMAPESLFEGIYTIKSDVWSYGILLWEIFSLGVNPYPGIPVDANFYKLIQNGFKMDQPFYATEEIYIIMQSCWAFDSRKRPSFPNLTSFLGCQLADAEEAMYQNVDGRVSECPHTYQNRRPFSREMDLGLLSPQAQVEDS", "experiment": "Inhibition of FLT3 (unknown origin)"}, "[20]": {"system": "COLO 205", "experiment": "Antitumor activity against human COLO 205 cells xenografted in athymic nude mouse model assessed as gross log cell kill at 15 mg/kg, ip administered once daily in presence of gemcitabine (Gemcitabine alone = 0.27%)", "assay_type": "functional"}, "[21]": {"molecular_target": "Vascular endothelial growth factor receptor 2 (Homo sapiens, UniProt P35968)", "sequence (P35968 whole entry)": "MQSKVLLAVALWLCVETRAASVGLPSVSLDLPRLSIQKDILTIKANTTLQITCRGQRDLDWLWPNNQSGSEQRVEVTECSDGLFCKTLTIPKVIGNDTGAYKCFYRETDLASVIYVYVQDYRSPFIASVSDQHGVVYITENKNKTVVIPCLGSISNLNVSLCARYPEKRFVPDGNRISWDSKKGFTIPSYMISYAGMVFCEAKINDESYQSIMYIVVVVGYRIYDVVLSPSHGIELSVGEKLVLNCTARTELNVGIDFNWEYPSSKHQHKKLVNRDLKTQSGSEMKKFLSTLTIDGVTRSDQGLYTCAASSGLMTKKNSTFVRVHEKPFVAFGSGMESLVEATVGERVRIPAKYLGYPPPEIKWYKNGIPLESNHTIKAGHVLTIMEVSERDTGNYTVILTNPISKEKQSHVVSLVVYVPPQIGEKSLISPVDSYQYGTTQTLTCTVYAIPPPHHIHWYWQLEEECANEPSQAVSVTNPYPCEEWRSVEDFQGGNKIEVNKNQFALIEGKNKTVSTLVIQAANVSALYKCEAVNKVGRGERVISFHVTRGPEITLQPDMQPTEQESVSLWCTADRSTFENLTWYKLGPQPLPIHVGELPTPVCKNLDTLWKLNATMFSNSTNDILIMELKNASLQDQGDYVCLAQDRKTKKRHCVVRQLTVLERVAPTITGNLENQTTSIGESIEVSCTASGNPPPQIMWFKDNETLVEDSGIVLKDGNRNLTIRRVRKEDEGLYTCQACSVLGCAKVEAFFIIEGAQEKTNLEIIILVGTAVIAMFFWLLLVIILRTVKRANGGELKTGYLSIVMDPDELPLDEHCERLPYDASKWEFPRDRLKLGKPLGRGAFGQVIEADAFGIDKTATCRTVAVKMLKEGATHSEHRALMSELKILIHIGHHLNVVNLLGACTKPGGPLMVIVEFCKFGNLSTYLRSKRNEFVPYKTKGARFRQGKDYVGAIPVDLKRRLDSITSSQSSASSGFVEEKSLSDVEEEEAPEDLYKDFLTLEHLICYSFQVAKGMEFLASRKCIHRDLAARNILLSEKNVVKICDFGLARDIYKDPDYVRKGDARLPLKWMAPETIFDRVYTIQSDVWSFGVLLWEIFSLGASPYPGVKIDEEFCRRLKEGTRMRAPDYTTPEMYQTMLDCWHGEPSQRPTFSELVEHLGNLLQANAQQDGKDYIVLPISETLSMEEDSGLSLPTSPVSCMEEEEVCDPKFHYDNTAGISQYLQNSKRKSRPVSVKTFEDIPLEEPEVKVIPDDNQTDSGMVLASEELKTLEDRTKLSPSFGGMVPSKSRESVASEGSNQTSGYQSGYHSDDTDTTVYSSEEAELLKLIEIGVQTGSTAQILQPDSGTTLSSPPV", "experiment": "Binding affinity to VEGFR2 (unknown origin) assessed as inhibition constant"}, "[22]": {"system": "K562", "experiment": "Antiproliferative activity against human K562 cells deficit of p53 expression assessed as inhibition of cell growth measured after 96 hrs by MTT assay", "assay_type": "functional, cell-based", "settings": "K562, 96 h"}, "[23]": {"experiment": "Volume of distribution at steady state in Sprague-Dawley rat at 4 mg/kg, iv administered as bolus dose by LCMS analysis", "assay_type": "ADME, organism-based", "settings": "in vivo, read-out: Vdss"}, "[24]": {"system": "COLO 205", "experiment": "Antitumor activity against human COLO 205 cells xenografted in athymic nude mouse model assessed as tumor growth inhibition at 24 mg/kg, ip administered twice daily in presence of gemcitabine (Gemcitabine alone= 58%)", "assay_type": "functional", "settings": "read-out: TGI"}, "[25]": {"system": "HT-29", "experiment": "Inhibition of camptothecin induced DNA damage in human HT-29 cells assessed as increase in mitotic index by measuring histone H3 phosphorylation at S10 residue at 0.001 to 1 uM measured after 16 hrs presence of nocodazole by dot blot assay", "assay_type": "functional, cell-based", "settings": "HT-29, 16 h"}},
  "note": "pEC50, pIC50, pKi: −log10 of the molar value. Active and inactive are the calls of the source. The rule behind the calls is not given here.",
  "data": [
    {"smiles": "Cn1cc(-c2[nH]c3cc(NC(=O)[C@H](N)C4CCCCC4)cc4c3c2C=NNC4=O)cn1", "values": [
      {"measurement": "PF50", "setting": "[1]", "value": 2.1},
      {"measurement": "pEC50", "setting": "[2]", "value": 7.42},
      {"measurement": "T/C", "setting": "[3]", "value": 8},
      {"measurement": "PF50", "setting": "[4]", "value": 1.1},
      {"measurement": "inhibition", "setting": "[5]", "value": "Active"},
      {"measurement": "pIC50", "setting": "[6]", "value": 7.54},
      {"measurement": "inhibition in vivo at 30 mg/kg", "setting": "[7]", "value": 41, "unit": "%"},
      {"measurement": "pIC50", "setting": "[8]", "value": 5.80},
      {"measurement": "LCK", "setting": "[9]", "value": 0.5},
      {"measurement": "T/C", "setting": "[10]", "value": 7.75},
      {"measurement": "inhibition in vivo at 20 mg/kg", "setting": "[11]", "value": 76, "unit": "%"},
      {"measurement": "PF50", "setting": "[12]", "value": 12.2},
      {"measurement": "inhibition", "setting": "[13]", "value": "Active"},
      {"measurement": "Cmax", "setting": "[14]", "value": 6780, "unit": "ng/mL"},
      {"measurement": "inhibition in vivo at 20 mg/kg", "setting": "[15]", "value": 43, "unit": "%"},
      {"measurement": "PF50", "setting": "[16]", "value": 1.1},
      {"measurement": "inhibition in vivo at 40 mg/kg", "setting": "[17]", "value": 75, "unit": "%"},
      {"measurement": "Cmax", "setting": "[18]", "value": 270, "unit": "ng/mL"},
      {"measurement": "pIC50", "setting": "[19]", "value": 7.29},
      {"measurement": "LCK", "setting": "[20]", "value": 0.71},
      {"measurement": "pKi", "setting": "[21]", "value": 7.80},
      {"measurement": "pIC50", "setting": "[22]", "value": 6.38},
      {"measurement": "Vd", "setting": "[23]", "value": 0.7, "unit": "L/kg"},
      {"measurement": "inhibition in vivo at 24 mg/kg", "setting": "[24]", "value": 81, "unit": "%"},
      {"measurement": "pEC50", "setting": "[25]", "value": 7.38}
    ]}
  ]
}
